From patent US20260125372A1, “DYNAMIN-1-LIKE PROTEIN INHIBITORS AND USES THEREOF” (Astellas Engineered Small Molecules US, Incorporated, priority 2022, published 2026)

Target: T1, DRP1 (Homo sapiens, UniProt O00429)
T1 construct: Human DRIP1 (UniProtID: O00429.4, residues 1-699); made in house; host or cells: Escherichia coli BL21 CodonPlus DE3
Assay: AlphaLISA assay (His-DRP1 / MiD49-GST interaction)
Format: binding
Details: His-DRP1 200 nM, MiD49-GST 20 nM, GMP-PNP 100 uM
Method: Human DRIP1 (UniProtID: O00429.4, residues 1-699), and human MiD49 (UnitProtIS: Q96C03.1, residues 126-454) was cloned into a pET15b vector as an N-terminal His-tag Fusion. All constructs were transformed in Escherichia coli host strain BL21 CodonPlus DE3. Bacteria was grown in LB media with 100 μg/ml ampicillin and 34 μg/ml chloramphenicol in an orbital shaker at 37° C. until OD600 reached 0.4, at which temperature was reduced to 16° C. Recombinant protein expression was expressed for 18 hr by the addition of IPTG at OD600 of about 0.8. All cultures were spun down and bacterial pellets were used for protein purification.
For His-DRP1, the pellets were resuspended in DRP-buffer A (20 mM Tris, 500 KCl, 1.89 β-ME, pH 8.0) and protease inhibitor cocktail (Roche), followed by cell disruption by sonication (400 W, pulse 3 sec on, 3 sec off, total 20 min). The lysate was centrifuged at 20,000 g and then supernatant applied to a preequilibrated Ni-NTA column with DRP-buffer A. The column was extensively washed with buffer A containing 50 mM imidazole. Purified His-DRP1 was eluted with DRP-buffer A containing 250 mM imidazole and dialyzed overnight at 4° C. (18 kDa cutoff) against DRP-buffer A to remove imidazole. For AlphaLISA, the His tag was retained on DRP1 full-length.
For MiD49-GST, the bacterial pellets were resuspended and sonicated in MID lysis buffer (25 mM Tris-HCl, pH 7.5, 500 mM NaCl, 5% glycerol, 1 mM TCEP, and 0.5% CHAPS). The lysate was pre-cleared at 20,300 g before applying to a glutathione column. Unbound proteins were washed using MID-buffer A (25 mM Tris-HCl, pH 7.5, 300 mM NaCl, 5% glycerol, 1 mM TCEP) and MID-buffer B (25 mM Tris-HCl, pH 7.5, 300 mM NaCl, 5% glycerol, 1 mM TCEP, 1 mM GSH). The protein was eluted with MID-buffer C (25 mM Tris-HCl, pH 7.5, 300 mM NaCl, 5% glycerol, 1 mM TCEP, 10 mM GSH). The target protein was concentrated in the ultra-filtration tube with MW cutoff 30 kDa and further purified by size-exclusion chromatography on a Superdex-200 column (GE Healthcare) in buffer A. Fractions containing MiD49-GST (126-454) were pooled, concentrated, flash-frozen as single-use aliquots in liquid nitrogen and stored at −80° C.
A total of 100 nl of compounds were plated in a 384-well AlphaPlate (PerkinElmer, Waltham, MA) at concentrations 100 uM to […] in DMSO (dilution by 3.165 for 11 concentration levels). Recombinant His-DRP1 (200 nM), MiD49-GST (20 nM), and GMP-PNP (100 uM) were mixed in assay buffer (PBS with 1.5% BSA, 1 mM DTT). Five microliters of the protein mixture were added to the plate and incubate at room temperature for 30 min. Glutathione donor beads and nickel chelate acceptor beads were diluted and mixed in assay buffer to obtain 40 μg/ml of each bead. Five microliters of the mixed beads were added to each well on the microplate leading to a final bead concentration of 20 µg/ml per well. The sealed plate was incubated at room temperature for 60 min and protected from light. The AlphaLISA signal was detected with an EnVision Multilabel Reader (excitation at 680 and emission 615 nm). GraphPad Prism was used to calculate the IC50 by applying sigmoidal dose-response fit (variable slope).

T1 sequence (O00429 1-699 isoform O00429-4): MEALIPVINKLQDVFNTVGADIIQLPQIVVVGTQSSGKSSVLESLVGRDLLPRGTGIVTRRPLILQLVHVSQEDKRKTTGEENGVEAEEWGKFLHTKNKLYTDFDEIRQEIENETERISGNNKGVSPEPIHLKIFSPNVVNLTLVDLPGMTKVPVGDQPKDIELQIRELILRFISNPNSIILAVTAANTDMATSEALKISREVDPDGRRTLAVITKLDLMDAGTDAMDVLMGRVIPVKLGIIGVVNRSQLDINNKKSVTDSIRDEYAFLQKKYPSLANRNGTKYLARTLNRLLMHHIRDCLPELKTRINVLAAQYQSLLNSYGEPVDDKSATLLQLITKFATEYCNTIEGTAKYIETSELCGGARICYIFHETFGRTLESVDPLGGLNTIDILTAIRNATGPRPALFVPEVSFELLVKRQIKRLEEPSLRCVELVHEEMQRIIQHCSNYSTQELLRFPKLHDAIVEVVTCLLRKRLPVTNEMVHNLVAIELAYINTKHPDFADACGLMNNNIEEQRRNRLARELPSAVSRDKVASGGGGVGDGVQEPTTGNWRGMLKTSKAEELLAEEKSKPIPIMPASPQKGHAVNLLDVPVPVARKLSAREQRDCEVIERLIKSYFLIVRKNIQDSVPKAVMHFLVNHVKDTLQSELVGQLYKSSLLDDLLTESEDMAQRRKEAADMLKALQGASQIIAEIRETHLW

Compound | IC50 [nM]
CCOc1cc(-c2cnc(Cl)s2)nc2ccc(NC(=O)C3COC3)cc12 [Example 12, N-(2-(2-chlorothiazol-5-yl)-4-ethoxyquinolin-6-yl)oxetane-3-carboxamide] | 1000 to 10000
Cc1cn(-c2cc(OC3CC3)c3cc(NC(=O)C4COC4)ccc3n2)cn1 [Example 43, N-(4-cyclopropoxy-2-(4-methyl-1H-imidazol-1-yl)quinolin-6-yl)oxetane-3-carboxamide] | 1000 to 10000
CCOc1cc(-n2cnc(C(C)(C)C)c2)nc2ccc(NC(=O)C3COC3)cc12 [Example 47, N-(2-(4-(tert-butyl)-1H-imidazol-1-yl)-4-ethoxyquinolin-6-yl)oxetane-3-carboxamide] | > 10000
CCOc1cc(-n2cnnc2)nc2ccc(NC(=O)C3COC3)cc12 [Example 45, N-(4-ethoxy-2-(4H-1,2,4-triazol-4-yl)quinolin-6-yl)oxetane-3-carboxamide] | 1000 to 10000
COCCOc1cc(-c2cncs2)nc2ccc(NC(=O)c3cnoc3)cc12 [Example 35, N-(4-(2-methoxyethoxy)-2-(thiazol-5-yl)quinolin-6-yl)isoxazole-4-carboxamide] | 500 to 1000
CCOc1cc(-n2cnc(C#N)c2)nc2ccc(NC(=O)C3COC3)cc12 [Example 46, N-(2-(4-cyano-1H-imidazol-1-yl)-4-ethoxyquinolin-6-yl)oxetane-3-carboxamide] | 1000 to 10000
COC[C@@H](C)Oc1cc(-c2cncs2)nc2ccc(NC(=O)[C@H](C)OC)cc12 [Example 51, (S)-2-methoxy-N-(4-(((R)-1-methoxypropan-2-yl)oxy)-2-(thiazol-5-yl)quinolin-6-yl)propanamide] | > 10000
COCCOc1cc(-c2cncs2)nc2ccc(NC(=O)C3CC3C(F)(F)F)cc12 (stereo not shown) [Example 20, N-(4-(2-methoxyethoxy)-2-(thiazol-5-yl)quinolin-6-yl)-2-(trifluoromethyl)cyclopropane-1-carboxamide] | 1000 to 10000
CCOc1cc(-n2cnc(Cl)c2)nc2ccc(NC(=O)C3COC3)cc12 [Example 44, N-(2-(4-chloro-1H-imidazol-1-yl)-4-ethoxyquinolin-6-yl)oxetane-3-carboxamide] | 500 to 1000

The remaining lines, values ahead:

IC50 [nM] | Compound
< 500 | COCC(C)Oc1cc(-c2cncs2)nc2ccc(NC(=O)C3COC3)cc12 (stereo not shown) [Example 38, N-(4-((1-methoxypropan-2-yl)oxy)-2-(thiazol-5-yl)quinolin-6-yl)oxetane-3-carboxamide]
500 to 1000 | COCCOc1cc(-c2cncs2)nc2ccc(NC(=O)C(C)COC)cc12 (stereo not shown) [Example 32, 3-methoxy-N-(4-(2-methoxyethoxy)-2-(thiazol-5-yl)quinolin-6-yl)-2-methylpropanamide]
< 500 | COCCOc1cc(-c2cncs2)nc2ccc(NC(=O)[C@H]3C[C@@H](O)C3)cc12 [Example 16, cis-3-hydroxy-N-(4-(2-methoxyethoxy)-2-(thiazol-5-yl)quinolin-6-yl)cyclobutane-1-carboxamide]
< 500 | COCCOc1cc(-c2cncs2)nc2ccc(NC(=O)[C@@H](C)OC)cc12 [Example 37, (R)-2-methoxy-N-(4-(2-methoxyethoxy)-2-(thiazol-5-yl)quinolin-6-yl)propanamide]
< 500 | CCOc1cc(-c2cnc(OC)s2)nc2ccc(NC(=O)C3COC3)cc12 [Example 7, N-(4-ethoxy-2-(2-methoxythiazol-5-yl)quinolin-6-yl) oxetane-3-carboxamide]
< 500 | CCOc1cc(-c2cnc(C)s2)nc2ccc(NC(=O)C3COC3)cc12 [Example 6, N-(4-ethoxy-2-(2-methylthiazol-5-yl)quinolin-6-yl) oxetane-3-carboxamide]
< 500 | COCCOc1cc(-n2cnc(C)c2)nc2ccc(NC(=O)C3COC3)cc12 [Example 41, N-(4-(2-methoxyethoxy)-2-(4-methyl-1H-imidazol-1-yl)quinolin-6-yl)oxetane-3-carboxamide]
< 500 | COCCOc1cc(-n2cnc(C3CC3)c2)nc2ccc(NC(=O)C3COC3)cc12 [Example 40, N-(2-(4-cyclopropyl-1H-imidazol-1-yl)-4-(2-methoxyethoxy)quinolin-6-yl)oxetane-3-carboxamide]
< 500 | COCCOc1cc(-c2cncs2)nc2ccc(NC(=O)C(C)OC)cc12 (stereo not shown) [Example 22, 2-methoxy-N-(4-(2-methoxyethoxy)-2-(thiazol-5-yl)quinolin-6-yl)propanamide]
< 500 | CCCOC(C)C(=O)Nc1ccc2nc(-c3cncs3)cc(OCCOC)c2c1 (stereo not shown) [Example 25, N-(4-(2-methoxyethoxy)-2-(thiazol-5-yl)quinolin-6-yl)-2-propoxypropanamide]
< 500 | COCCOc1cc(-c2cncs2)nc2ccc(NC(=O)C3CCCOC3)cc12 (stereo not shown) [Example 23, N-(4-(2-methoxyethoxy)-2-(thiazol-5-yl)quinolin-6-yl)tetrahydro-2H-pyran-3-carboxamide]
< 500 | COCCOc1cc(-c2cncs2)nc2ccc(NC(=O)[C@H]3C[C@H](O)C3)cc12 [Example 17, trans-3-hydroxy-N-(4-(2-methoxyethoxy)-2-(thiazol-5-yl)quinolin-6-yl)cyclobutane-1-carboxamide]
< 500 | COCCOc1cc(-c2cncs2)nc2ccc(NC(=O)C3CC3C)cc12 (stereo not shown) [Example 18, N-(4-(2-methoxyethoxy)-2-(thiazol-5-yl)quinolin-6-yl)-2-methylcyclopropane-1-carboxamide]
